Assay [1] concerns the target Serine/threonine-protein kinase tousled-like 2 (Homo sapiens) (UniProt Q86UE8). In words: Selectivity interaction (Kinase panel (KiNativ target engagement assay in Jurkat cells)) EUB0001635a TLK2. It counts as cell-based. As to conditions: at 1 µM.
The target in assay [2] is Cyclin-dependent kinase 13 (Homo sapiens, UniProt Q14004). In words: Selectivity interaction (KinomeScan (DiscoverX)) EUB0000666a CDK13. As to conditions: at 10 µM.
In assay [3] the target is T1, Mitogen-activated protein kinase kinase kinase 13 (Homo sapiens) (UniProt O43283).
T1 sequence (whole entry): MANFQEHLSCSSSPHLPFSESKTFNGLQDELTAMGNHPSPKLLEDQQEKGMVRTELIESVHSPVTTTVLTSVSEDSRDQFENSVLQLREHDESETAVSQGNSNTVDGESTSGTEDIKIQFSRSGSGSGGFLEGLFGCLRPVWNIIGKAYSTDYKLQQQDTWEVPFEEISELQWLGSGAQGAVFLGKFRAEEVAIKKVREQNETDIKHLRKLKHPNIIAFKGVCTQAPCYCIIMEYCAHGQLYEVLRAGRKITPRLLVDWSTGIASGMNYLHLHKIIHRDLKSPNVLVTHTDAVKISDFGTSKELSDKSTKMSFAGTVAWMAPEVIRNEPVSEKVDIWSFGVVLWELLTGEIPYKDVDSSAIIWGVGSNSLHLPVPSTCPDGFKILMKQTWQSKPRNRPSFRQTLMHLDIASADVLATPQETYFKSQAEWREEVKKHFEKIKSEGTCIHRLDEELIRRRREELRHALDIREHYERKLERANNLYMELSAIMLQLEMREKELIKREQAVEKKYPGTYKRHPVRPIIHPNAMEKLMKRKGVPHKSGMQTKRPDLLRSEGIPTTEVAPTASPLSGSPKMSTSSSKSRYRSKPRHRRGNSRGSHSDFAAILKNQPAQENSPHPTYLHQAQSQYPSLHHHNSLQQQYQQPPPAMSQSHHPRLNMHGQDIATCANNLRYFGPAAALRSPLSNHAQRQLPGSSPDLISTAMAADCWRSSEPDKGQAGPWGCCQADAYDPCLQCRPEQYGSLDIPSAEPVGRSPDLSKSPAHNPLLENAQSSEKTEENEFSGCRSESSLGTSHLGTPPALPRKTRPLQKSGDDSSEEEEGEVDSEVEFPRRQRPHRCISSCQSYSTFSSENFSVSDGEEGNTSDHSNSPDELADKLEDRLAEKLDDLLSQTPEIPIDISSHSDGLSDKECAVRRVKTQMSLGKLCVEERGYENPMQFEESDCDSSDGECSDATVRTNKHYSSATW
Put plainly: Selectivity interaction (KinomeScan (DiscoverX)) EUB0000666a MAP3K13. To be noted: at 10 µM.

Assay [4] concerns the target T2, Histone-arginine methyltransferase CARM1 (Homo sapiens) (UniProt Q86X55).
T2 sequence (whole entry): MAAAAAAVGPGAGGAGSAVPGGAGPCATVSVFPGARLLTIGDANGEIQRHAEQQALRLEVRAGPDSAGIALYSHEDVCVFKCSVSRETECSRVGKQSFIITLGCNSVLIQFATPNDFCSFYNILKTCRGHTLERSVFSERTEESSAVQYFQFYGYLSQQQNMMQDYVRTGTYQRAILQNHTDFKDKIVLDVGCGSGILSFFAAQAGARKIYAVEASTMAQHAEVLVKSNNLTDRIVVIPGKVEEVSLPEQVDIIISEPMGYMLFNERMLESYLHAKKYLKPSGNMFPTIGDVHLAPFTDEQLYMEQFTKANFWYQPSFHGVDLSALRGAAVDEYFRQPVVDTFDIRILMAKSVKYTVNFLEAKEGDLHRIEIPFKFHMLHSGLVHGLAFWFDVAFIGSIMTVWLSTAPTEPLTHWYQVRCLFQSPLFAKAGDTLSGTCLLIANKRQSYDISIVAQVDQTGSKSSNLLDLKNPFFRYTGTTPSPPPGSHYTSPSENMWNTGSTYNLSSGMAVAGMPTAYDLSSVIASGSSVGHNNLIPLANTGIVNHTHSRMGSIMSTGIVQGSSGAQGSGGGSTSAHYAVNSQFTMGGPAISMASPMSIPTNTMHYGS
To be noted: KMS-20, at 3 µM.

In assay [5] the target is Mitogen-activated protein kinase 9 (Homo sapiens, UniProt P45984). Put plainly: Selectivity interaction (Millipore kinase profiler) EUB0000124b MAPK9. To be noted: at 10 µM.
Sequence of Mitogen-activated protein kinase 9 (P45984 whole entry, looked up): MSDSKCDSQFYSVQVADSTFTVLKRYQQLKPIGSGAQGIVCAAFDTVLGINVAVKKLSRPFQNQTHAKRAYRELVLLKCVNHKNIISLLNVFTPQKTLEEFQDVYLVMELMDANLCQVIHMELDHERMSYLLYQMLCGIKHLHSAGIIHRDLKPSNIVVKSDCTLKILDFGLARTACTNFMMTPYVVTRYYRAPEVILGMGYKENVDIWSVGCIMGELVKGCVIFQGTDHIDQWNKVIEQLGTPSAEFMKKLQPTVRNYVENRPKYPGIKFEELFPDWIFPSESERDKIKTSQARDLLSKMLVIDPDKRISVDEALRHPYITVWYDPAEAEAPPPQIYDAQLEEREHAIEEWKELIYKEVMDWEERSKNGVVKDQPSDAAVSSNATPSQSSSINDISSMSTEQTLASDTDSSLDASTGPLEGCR
The target in assay [6] is T3, Membrane-associated tyrosine- and threonine-specific cdc2-inhibitory kinase (Homo sapiens) (UniProt Q99640).
T3 sequence (whole entry): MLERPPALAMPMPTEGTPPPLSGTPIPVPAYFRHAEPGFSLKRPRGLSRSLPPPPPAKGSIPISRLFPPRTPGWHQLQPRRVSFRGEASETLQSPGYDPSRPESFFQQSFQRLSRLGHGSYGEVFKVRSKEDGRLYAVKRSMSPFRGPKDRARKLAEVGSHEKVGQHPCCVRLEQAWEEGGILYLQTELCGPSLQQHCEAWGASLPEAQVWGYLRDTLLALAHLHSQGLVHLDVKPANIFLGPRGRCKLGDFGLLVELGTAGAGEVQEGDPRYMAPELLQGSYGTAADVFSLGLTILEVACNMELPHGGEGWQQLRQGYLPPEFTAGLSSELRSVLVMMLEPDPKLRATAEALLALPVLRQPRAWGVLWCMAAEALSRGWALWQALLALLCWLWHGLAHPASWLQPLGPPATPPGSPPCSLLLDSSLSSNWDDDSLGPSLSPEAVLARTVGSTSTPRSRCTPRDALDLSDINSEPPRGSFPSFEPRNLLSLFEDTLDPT
Put plainly: Selectivity interaction (ProQinase) EUB0000171b PKMYT1.

In assay [7] the target is Protein arginine N-methyltransferase 8 (Homo sapiens, UniProt Q9NR22). Put plainly: Selectivity interaction (Transferase panel (protein, RNA, and DNA methyltransferases. and EP300 (acetyltransferase))) EUB0000270b PRMT8.
Sequence of Protein arginine N-methyltransferase 8 (Q9NR22 2-394 limits assumed): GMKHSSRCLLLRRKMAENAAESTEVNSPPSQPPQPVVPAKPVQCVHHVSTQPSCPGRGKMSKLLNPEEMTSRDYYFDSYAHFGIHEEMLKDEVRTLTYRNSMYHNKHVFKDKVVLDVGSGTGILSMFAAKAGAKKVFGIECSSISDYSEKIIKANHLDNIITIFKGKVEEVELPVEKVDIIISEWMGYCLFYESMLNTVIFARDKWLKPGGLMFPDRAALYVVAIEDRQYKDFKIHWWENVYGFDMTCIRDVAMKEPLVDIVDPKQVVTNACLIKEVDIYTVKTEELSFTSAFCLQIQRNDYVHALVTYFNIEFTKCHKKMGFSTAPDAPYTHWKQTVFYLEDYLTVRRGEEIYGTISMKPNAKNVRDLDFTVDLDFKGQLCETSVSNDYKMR
The target in assay [8] is Tyrosine-protein kinase JAK1 (Homo sapiens, UniProt P23458). In words: Selectivity interaction (KinomeScan (DiscoverX)) EUB0000045b JAK1. As to conditions: at 10 µM.
Assay [9] concerns the target Serine/threonine-protein kinase PLK3 (Homo sapiens, UniProt Q9H4B4). In words: Selectivity interaction (KinomeScan (DiscoverX)) EUB0000045b PLK3.
Assay [10] has as its target Cyclin-dependent kinase 9 (Homo sapiens, UniProt P50750). In words: Selectivity interaction (KinomeScan (DiscoverX)) EUB0000618a CDK9. To be noted: at 10 µM.

Sequence of Serine/threonine-protein kinase PLK3 (Q9H4B4 whole entry, looked up): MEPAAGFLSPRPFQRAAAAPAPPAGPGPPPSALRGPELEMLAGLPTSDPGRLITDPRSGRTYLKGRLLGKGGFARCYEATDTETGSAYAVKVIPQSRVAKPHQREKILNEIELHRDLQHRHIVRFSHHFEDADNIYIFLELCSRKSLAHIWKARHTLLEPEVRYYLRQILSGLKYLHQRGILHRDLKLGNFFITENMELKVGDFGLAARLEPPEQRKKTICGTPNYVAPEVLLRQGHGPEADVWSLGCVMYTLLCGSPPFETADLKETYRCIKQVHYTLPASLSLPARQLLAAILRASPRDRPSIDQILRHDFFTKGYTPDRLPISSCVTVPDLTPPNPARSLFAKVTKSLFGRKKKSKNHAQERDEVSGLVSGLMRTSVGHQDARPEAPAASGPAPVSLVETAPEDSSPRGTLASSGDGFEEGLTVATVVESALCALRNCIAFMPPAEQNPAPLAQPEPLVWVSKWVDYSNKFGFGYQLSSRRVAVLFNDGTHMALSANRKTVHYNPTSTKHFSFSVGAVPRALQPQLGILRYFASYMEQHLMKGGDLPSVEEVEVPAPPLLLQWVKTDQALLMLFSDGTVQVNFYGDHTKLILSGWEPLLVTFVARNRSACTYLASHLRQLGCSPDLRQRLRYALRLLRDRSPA
Sequence of Serine/threonine-protein kinase tousled-like 2 (Homo sapiens) (Q86UE8 whole entry, looked up): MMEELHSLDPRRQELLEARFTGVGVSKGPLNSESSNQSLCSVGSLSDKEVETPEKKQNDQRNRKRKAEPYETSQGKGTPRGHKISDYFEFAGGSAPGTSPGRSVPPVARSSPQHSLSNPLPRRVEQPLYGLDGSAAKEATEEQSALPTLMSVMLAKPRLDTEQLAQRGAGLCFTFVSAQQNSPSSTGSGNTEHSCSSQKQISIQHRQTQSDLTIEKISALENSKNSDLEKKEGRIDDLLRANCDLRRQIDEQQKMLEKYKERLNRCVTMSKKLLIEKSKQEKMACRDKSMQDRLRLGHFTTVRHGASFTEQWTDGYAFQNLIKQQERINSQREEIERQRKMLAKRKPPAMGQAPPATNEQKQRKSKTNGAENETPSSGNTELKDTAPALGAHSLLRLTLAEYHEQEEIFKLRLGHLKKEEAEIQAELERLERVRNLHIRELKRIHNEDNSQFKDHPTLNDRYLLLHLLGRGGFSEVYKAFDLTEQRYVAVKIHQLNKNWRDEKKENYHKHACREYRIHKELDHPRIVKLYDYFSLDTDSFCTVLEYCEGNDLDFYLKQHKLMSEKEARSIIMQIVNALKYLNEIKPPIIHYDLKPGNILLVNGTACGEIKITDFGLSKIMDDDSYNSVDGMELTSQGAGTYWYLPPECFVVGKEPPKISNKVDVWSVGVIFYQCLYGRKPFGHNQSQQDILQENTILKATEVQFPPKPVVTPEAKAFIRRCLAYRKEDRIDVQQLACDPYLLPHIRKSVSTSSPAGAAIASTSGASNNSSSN
Sequence of Cyclin-dependent kinase 13 (Q14004 whole entry, looked up): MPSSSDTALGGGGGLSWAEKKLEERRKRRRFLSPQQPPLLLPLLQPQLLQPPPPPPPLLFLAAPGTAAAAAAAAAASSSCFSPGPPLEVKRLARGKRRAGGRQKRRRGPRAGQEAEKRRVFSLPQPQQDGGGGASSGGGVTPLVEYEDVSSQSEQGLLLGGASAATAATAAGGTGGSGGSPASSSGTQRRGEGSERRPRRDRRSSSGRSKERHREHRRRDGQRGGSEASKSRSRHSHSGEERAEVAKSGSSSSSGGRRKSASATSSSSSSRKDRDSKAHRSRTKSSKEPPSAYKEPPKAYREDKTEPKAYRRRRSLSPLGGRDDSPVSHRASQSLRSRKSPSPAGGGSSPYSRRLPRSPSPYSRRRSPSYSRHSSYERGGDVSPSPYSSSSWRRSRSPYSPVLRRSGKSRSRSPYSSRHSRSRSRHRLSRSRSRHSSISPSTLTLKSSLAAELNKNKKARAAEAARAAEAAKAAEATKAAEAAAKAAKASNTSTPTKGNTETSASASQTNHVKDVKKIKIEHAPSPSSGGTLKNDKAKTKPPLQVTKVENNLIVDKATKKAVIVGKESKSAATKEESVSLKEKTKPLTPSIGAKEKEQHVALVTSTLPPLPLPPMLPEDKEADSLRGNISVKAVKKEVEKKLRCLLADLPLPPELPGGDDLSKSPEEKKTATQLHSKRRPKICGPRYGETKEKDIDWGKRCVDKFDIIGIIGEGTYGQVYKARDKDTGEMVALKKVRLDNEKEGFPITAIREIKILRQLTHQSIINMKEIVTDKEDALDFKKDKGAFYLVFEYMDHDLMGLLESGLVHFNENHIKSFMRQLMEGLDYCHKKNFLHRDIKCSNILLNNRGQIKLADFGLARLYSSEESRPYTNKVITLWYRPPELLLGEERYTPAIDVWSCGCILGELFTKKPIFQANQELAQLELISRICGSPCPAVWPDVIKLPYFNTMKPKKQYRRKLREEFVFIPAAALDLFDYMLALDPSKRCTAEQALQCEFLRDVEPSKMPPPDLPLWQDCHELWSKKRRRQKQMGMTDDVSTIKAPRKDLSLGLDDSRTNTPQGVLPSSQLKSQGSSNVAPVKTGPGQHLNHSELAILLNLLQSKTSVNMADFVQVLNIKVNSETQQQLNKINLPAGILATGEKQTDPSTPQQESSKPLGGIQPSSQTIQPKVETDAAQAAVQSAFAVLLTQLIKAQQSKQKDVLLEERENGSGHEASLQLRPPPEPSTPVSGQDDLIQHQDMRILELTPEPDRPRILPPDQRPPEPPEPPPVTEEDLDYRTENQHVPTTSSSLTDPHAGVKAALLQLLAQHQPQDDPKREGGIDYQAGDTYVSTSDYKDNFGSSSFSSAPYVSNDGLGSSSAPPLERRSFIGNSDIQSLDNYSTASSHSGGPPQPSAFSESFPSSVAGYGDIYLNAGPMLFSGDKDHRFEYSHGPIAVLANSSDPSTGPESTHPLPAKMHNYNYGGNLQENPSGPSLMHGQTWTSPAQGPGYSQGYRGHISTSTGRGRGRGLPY
Sequence of Cyclin-dependent kinase 9 (P50750 whole entry): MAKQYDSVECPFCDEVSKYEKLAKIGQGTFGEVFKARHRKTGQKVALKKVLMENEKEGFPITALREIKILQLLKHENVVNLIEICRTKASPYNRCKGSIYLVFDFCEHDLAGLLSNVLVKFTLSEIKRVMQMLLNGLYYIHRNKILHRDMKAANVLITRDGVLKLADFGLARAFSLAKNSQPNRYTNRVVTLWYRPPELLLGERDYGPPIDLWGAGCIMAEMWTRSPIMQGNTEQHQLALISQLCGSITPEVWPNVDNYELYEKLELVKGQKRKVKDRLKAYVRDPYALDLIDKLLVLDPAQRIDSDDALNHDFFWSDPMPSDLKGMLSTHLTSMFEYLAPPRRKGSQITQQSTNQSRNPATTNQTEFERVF

Consider `C=CC(=O)Nc1ccc(C(=O)Nc2[nH]nc3c2CN(C(=O)N[C@H](CN(C)C)c2ccccc2)C3(C)C)cc1`, for which the % of engagement in assay [1] (Selectivity number of off-targets 0.0, Selectivity number of targets 233.0, Source Knowledge https://www.sciencedirect.com/science/article/pii/S2451945619300674?via%3Dihub) worked out at 6.8%; in assay [1], 13.7%.
Regarding `O=C(NOC[C@H](O)CO)c1ccc(F)c(F)c1Nc1ccc(I)cc1F`, the values for the % of control in assay [2] and in assay [3] were 84% and 86%, respectively.
`CNCCN1CCC(c2cc(CN(C)C(=O)c3cccc(Oc4ccccc4)c3)ccn2)CC1`: the % of growth rate in assay [4] was -22.5%.
With `CC(=O)Nc1cccc(-n2c(=O)n(C3CC3)c(=O)c3c(Nc4ccc(I)cc4F)n(C)c(=O)c(C)c32)c1`, in [5], the % of control came to 97%.
For `C=CC(=O)Nc1cccc(C(=O)Nc2ccc(Nc3cc(-c4[nH]c(SC)nc4C)ccn3)cc2)c1`, the % of control in [6] (at 1 µM) turned out to be 74%; in assay [6] (at 5 µM) it was 56%.
With `Cc1cc(CN)cc(C)c1-c1ncn(C)c1-c1cncn1C`, the % activity was over 90% in [7] (at 1 µM) and over 80% in assay [7] (at 10 µM).
For `C=CC(=O)Nc1cc(-n2c(=O)ccc3cnc4ccc(-c5ccc(NS(C)(=O)=O)cc5)cc4c32)ccc1C`, the % of control was found to be 93% in assay [8], 100% in assay [9] (at 1 µM) and 100% in assay [9] (at 10 µM).
For the compound `O[C@H]1CC[C@H](Nc2ncc3nc(Nc4c(F)cc(F)cc4F)n([C@H]4CCOC4)c3n2)CC1`, the % of control in [10] came out at 78%.

Source of the values: ChEMBL document CHEMBL5465560, “Selectivity Literature for EUbOPEN Chemogenomic Library” (2024).
